Measured values as given in ChEMBL document CHEMBL3124780, “The synthesis of 4,7-disubstituted-2H-benzo[b][1,4]-oxazin-3(4H)-ones using Smiles rearrangement and their in vitro evaluation as platelet aggregation inhibitors” (Bioorg Med Chem Lett, 2014).
pIC50: −log10 of the molar value.

test: Antiplatelet activity in New Zealand rabbit platelet-rich plasma assessed as inhibition of ADP-induced aggregation treated for 5 mins prior to ADP-challenge measured after 1 to 6 mins by spectrophotometric analysis; assay type: functional, cell-free; conditions: Oryctolagus cuniculus

SMILES	pIC50
CCCCN1C(=O)COc2cc(CN3CCN(c4ccccc4)CC3)ccc21	4.81
CCCCN1C(=O)COc2cc(CN3CCN(c4ccccc4F)CC3)ccc21	4.77
O=C1COc2cc(CN3CCN(c4ccccc4F)CC3)ccc2N1Cc1ccccc1	4.81
CCCN1C(=O)COc2cc(CN3CCN(Cc4ccccc4)CC3)ccc21	5.04
CCN1C(=O)COc2cc(CN3CCOCC3)ccc21	4.98
CC(C)N1C(=O)COc2cc(CN3CCOCC3)ccc21	4.96
CCCN1C(=O)COc2cc(CN3CCOCC3)ccc21	5.02
CCCCN1C(=O)COc2cc(CN3CCOCC3)ccc21	4.84
O=C1COc2cc(CN3CCOCC3)ccc2N1Cc1ccccc1	4.92
CCN1C(=O)COc2cc(CN3CCN(c4ccccc4)CC3)ccc21	5.00
CC(C)N1C(=O)COc2cc(CN3CCN(c4ccccc4)CC3)ccc21	4.97
CCCN1C(=O)COc2cc(CN3CCN(c4ccccc4)CC3)ccc21	4.89
O=C1COc2cc(CN3CCN(c4ccccc4)CC3)ccc2N1Cc1ccccc1	4.86
CCN1C(=O)COc2cc(CN3CCN(c4ccc(F)cc4)CC3)ccc21	4.95
CC(C)N1C(=O)COc2cc(CN3CCN(c4ccc(F)cc4)CC3)ccc21	4.87
CCCN1C(=O)COc2cc(CN3CCN(c4ccc(F)cc4)CC3)ccc21	4.94
CCCCN1C(=O)COc2cc(CN3CCN(c4ccc(F)cc4)CC3)ccc21	4.82
O=C1COc2cc(CN3CCN(c4ccc(F)cc4)CC3)ccc2N1Cc1ccccc1	4.71
CCN1C(=O)COc2cc(CN3CCN(c4ccccc4F)CC3)ccc21	4.90
CC(C)N1C(=O)COc2cc(CN3CCN(c4ccccc4F)CC3)ccc21	4.87
CCCN1C(=O)COc2cc(CN3CCN(c4ccccc4F)CC3)ccc21	4.86
CC(=O)Oc1ccccc1C(=O)O [ASPIRIN]	5.15
Clc1ccccc1CN1CCc2sccc2C1 [TICLOPIDINE]	5.43
